According to US20240279278A1, “NMU RECEPTOR 2 AGONISTS” (Boehringer Ingelheim International GmbH, priority 2023, published 2024):
Residues, ends and D or L forms follow the SMILES beside them.

Assays:
Format in all cases: cell-based
[1] = molecular target: T1, human NMUR1 receptor (Homo sapiens, UniProt Q9HB89); assay: IP1 Gq HTRF assay, activation of human NMUR1 in buffer; conditions: CHO-K1 cells expressing human NMUR1, stimulation buffer with 0.1% BSA; read-out: EC50 (hNMUR1) buffer
T1 construct: expressed in transfected cells; host or cells: CHO-K1
T1 sequence (Q9HB89 1-426): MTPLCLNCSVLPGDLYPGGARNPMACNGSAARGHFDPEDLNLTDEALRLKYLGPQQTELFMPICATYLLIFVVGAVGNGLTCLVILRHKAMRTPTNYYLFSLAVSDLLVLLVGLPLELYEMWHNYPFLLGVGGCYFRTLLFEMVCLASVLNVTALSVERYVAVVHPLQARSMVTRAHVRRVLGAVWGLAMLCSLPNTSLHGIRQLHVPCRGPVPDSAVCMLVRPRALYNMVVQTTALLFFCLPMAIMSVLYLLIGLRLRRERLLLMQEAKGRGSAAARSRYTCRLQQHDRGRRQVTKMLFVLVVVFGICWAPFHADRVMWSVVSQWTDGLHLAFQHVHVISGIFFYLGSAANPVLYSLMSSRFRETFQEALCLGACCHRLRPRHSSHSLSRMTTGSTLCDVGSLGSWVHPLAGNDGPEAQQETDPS
Method in brief: (§1)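 IP-One HTRF competition (665/620 nm ratio) read after 1 h agonist exposure at 37 °C in pH 7.4 HEPES/HBSS stimulation buffer containing 50 mM LiCl, 0.1% BSA, 1% DMSO. Cells: CHO-K1 stably expressing human NMUR2 or NMUR1. EC50 by 4-parameter nonlinear regression of 8-point curves.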

[2] = molecular target: T2, human NMUR2 receptor (Homo sapiens, UniProt Q9GZQ4); assay: IP1 Gq HTRF assay, activation of human NMUR2 in buffer; parameters: expressed in transfected cells; host or cells: CHO-K1; conditions: CHO-K1 cells expressing human NMUR2, stimulation buffer with 0.1% BSA; read-out: EC50 (hNMUR2) buffer
T2 sequence (Q9GZQ4 whole entry): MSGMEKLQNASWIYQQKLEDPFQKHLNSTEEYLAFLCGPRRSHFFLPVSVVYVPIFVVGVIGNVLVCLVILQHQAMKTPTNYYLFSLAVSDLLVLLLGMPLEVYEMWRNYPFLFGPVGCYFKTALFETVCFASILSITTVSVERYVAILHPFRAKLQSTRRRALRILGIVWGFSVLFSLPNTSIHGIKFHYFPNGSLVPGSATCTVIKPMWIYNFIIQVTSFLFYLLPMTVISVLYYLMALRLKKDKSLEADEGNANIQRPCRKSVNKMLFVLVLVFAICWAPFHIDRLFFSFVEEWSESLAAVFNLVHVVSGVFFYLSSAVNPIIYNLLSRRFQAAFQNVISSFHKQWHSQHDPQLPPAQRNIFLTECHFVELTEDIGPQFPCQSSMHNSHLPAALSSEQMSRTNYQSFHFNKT
Method in brief: as §1

[3] = molecular target: T2, human NMUR2 receptor; assay: IP1 Gq HTRF assay, activation of human NMUR2 in human plasma; parameters: expressed in transfected cells; host or cells: CHO-K1; conditions: CHO-K1 cells expressing human NMUR2, 100% human plasma; read-out: EC50 (hNMUR2) human plasma
Method in brief: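 EC50 obtained via 4-parameter sigmoidal regression of HTRF IP-One signal (665 nm/620 nm), which falls as intracellular IP1 rises. Stimulation: 1 h, 37° C, peptides in human plasma plus 50 mM LiCl, 1% DMSO final, on NMUR2-expressing CHO-K1 cells, 8 concentrations.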

| Compound | EC50 [1] [nM] | EC50 [2] [nM] | EC50 [3] [nM] |
| --- | --- | --- | --- |
| CCCC[C@H](NC(=O)[C@H](CC(C)C)N(C)C(=O)[C@H](Cc1ccccc1)NC(=O)[C@H](Cc1ccc(O)cc1)NC(=O)CN1CCN(CCNC(=O)CN(C)C(=O)CN(C)C(=O)CN(C)C(=O)CN(C)C(=O)CN(C)C(=O)CN(C)C(=O)CN(C)C(=O)CN(C)C(=O)CN(C)C(=O)CN(C)C(=O)CN(C)C(=O)CN(C)C(=O)CN(C)C(=O)CN(C)C(=O)CN(C)C(=O)CC[C@H](NC(=O)CC[C@H](NC(=O)CC[C@H](NC(=O)CCCCCCCCCCCCCCCCC(=O)O)C(=O)O)C(=O)O)C(=O)O)CC1)C(=O)N[C@@H](CCCN)C(=O)N(C)[C@@H](C)C(=O)N[C@@H](CCCNC(=N)N)C(=O)NCC(N)=O [Compound 22, C18DA-gGlu3-Sar15-AEPipAc-Tyr-Phe-NMeLeu-Nle-Orn-NMeAla-Arg-Gly-NH2] (HELM PEPTIDE1{[O=C(O)CCCCCCCCCCCCCCCCC(=O)[*:2]].[gGlu].[gGlu].[gGlu].[Sar].[Sar].[Sar].[Sar].[Sar].[Sar].[Sar].[Sar].[Sar].[Sar].[Sar].[Sar].[Sar].[Sar].[Sar].[O=C(CN1CCN(CCN[*:1])CC1)[*:2]].Y.F.[meL].[Nle].[Orn].[meA].R.G.[am]}$$$$V2.0) | > 1000 | 3.2 | 10.8 |
| CCCC[C@H](NC(=O)[C@H](CC(C)C)N(C)C(=O)[C@H](Cc1ccccc1)NC(=O)[C@H](Cc1ccc(O)cc1)NC(=O)CN1CCN(CCNC(=O)CN(C)C(=O)CN(C)C(=O)CN(C)C(=O)CN(C)C(=O)CN(C)C(=O)CN(C)C(=O)CN(C)C(=O)CN(C)C(=O)CN(C)C(=O)CN(C)C(=O)CN(C)C(=O)CN(C)C(=O)CN(C)C(=O)CN(C)C(=O)CN(C)C(=O)CC[C@H](NC(=O)CC[C@H](NC(=O)CC[C@H](NC(=O)CCCCCCCCCCCCCCCCC(=O)O)C(=O)O)C(=O)O)C(=O)O)CC1)C(=O)N[C@@H](CCN)C(=O)N(C)[C@@H](C)C(=O)N[C@@H](CCCNC(=N)N)C(=O)NCC(N)=O [Compound 23, C18DA-gGlu3-Sar15-AEPipAc-Tyr-Phe-NMeLeu-Nle-Dbu-NMeAla-Arg-Gly-NH2] (HELM PEPTIDE1{[O=C(O)CCCCCCCCCCCCCCCCC(=O)[*:2]].[gGlu].[gGlu].[gGlu].[Sar].[Sar].[Sar].[Sar].[Sar].[Sar].[Sar].[Sar].[Sar].[Sar].[Sar].[Sar].[Sar].[Sar].[Sar].[O=C(CN1CCN(CCN[*:1])CC1)[*:2]].Y.F.[meL].[Nle].[Dab].[meA].R.G.[am]}$$$$V2.0) | > 1000 | 3.3 | 11.1 |
| CCCC[C@H](NC(=O)[C@H](CC(C)C)N(C)C(=O)[C@H](Cc1ccccc1)NC(=O)[C@H](Cc1ccc(O)cc1)NC(=O)CN1CCN(CCNC(=O)CN(C)C(=O)CN(C)C(=O)CN(C)C(=O)CN(C)C(=O)CN(C)C(=O)CN(C)C(=O)CN(C)C(=O)CN(C)C(=O)CN(C)C(=O)CC[C@H](NC(=O)CC[C@H](NC(=O)CC[C@H](NC(=O)CCCCCCCCCCCCCCCCC(=O)O)C(=O)O)C(=O)O)C(=O)O)CC1)C(=O)N[C@@H](CCN)C(=O)N1CCC[C@H]1C(=O)N[C@@H](CCCNC(=N)N)C(=O)NCC(N)=O [Compound 24, C18DA-gGlu3-Sar9-AEPipAc-Tyr-Phe-NMeLeu-Nle-Dbu-Pro-Arg-Gly-NH2] (HELM PEPTIDE1{[O=C(O)CCCCCCCCCCCCCCCCC(=O)[*:2]].[gGlu].[gGlu].[gGlu].[Sar].[Sar].[Sar].[Sar].[Sar].[Sar].[Sar].[Sar].[Sar].[O=C(CN1CCN(CCN[*:1])CC1)[*:2]].Y.F.[meL].[Nle].[Dab].P.R.G.[am]}$$$$V2.0) | 1000 | 1.4 | 12.6 |
| CCCC[C@H](NC(=O)[C@H](CC(C)C)N(C)C(=O)[C@H](Cc1ccccc1)NC(=O)[C@H](Cc1ccc(O)cc1)NC(=O)CN1CCN(CCNC(=O)CN(C)C(=O)CN(C)C(=O)CN(C)C(=O)CN(C)C(=O)CN(C)C(=O)CN(C)C(=O)CN(C)C(=O)CN(C)C(=O)CN(C)C(=O)CN(C)C(=O)CN(C)C(=O)CN(C)C(=O)CC[C@H](NC(=O)CC[C@H](NC(=O)CC[C@H](NC(=O)CCCCCCCCCCCCCCCCC(=O)O)C(=O)O)C(=O)O)C(=O)O)CC1)C(=O)N[C@@H](CCCNC(=N)N)C(=O)N1CCC[C@H]1C(=O)N[C@@H](CCCNC(=N)N)C(=O)NCC(N)=O [Compound 25, C18DA-gGlu3-Sar12-AEPipAc-Tyr-Phe-NMeLeu-Nle-Arg-Pro-Arg-Gly-NH2] | 200 | 1.1 | 8.6 |
| CCCC[C@H](NC(=O)[C@H](CC(C)C)N(C)C(=O)[C@H](Cc1ccccc1)NC(=O)[C@H](Cc1ccc(O)cc1)NC(=O)CN1CCN(CCNC(=O)CN(C)C(=O)CN(C)C(=O)CN(C)C(=O)CN(C)C(=O)CN(C)C(=O)CN(C)C(=O)CN(C)C(=O)CN(C)C(=O)CN(C)C(=O)CN(C)C(=O)CN(C)C(=O)CN(C)C(=O)CC[C@H](NC(=O)CC[C@H](NC(=O)CC[C@H](NC(=O)CCCCCCCCCCCCCCCCC(=O)O)C(=O)O)C(=O)O)C(=O)O)CC1)C(=O)N[C@@H](CCN)C(=O)N1CCC[C@H]1C(=O)N[C@@H](CCCNC(=N)N)C(=O)NCC(N)=O [Compound 27, C18DA-gGlu3-Sar12-AEPipAc-Tyr-Phe-NMeLeu-Nle-Dbu-Pro-Arg-Gly-NH2] | 1700 | 1.2 | 6.9 |
| CCCC[C@H](NC(=O)[C@H](CC(C)C)N(C)C(=O)[C@H](Cc1ccccc1)NC(=O)[C@H](Cc1ccc(O)cc1)NC(=O)CN1CCN(CCNC(=O)CN(C)C(=O)CN(C)C(=O)CN(C)C(=O)CN(C)C(=O)CN(C)C(=O)CN(C)C(=O)CN(C)C(=O)CN(C)C(=O)CN(C)C(=O)CC[C@H](NC(=O)CC[C@H](NC(=O)CC[C@H](NC(=O)CCCCCCCCCCCCCCCCC(=O)O)C(=O)O)C(=O)O)C(=O)O)CC1)C(=O)N[C@@H](CCN)C(=O)N(C)[C@@H](C)C(=O)N[C@@H](CCCNC(=N)N)C(=O)NCC(N)=O [Compound 28, C18DA-gGlu3-Sar9-AEPipAc-Tyr-Phe-NMeLeu-Nle-Dbu-NMeAla-Arg-Gly-NH2] (HELM PEPTIDE1{[O=C(O)CCCCCCCCCCCCCCCCC(=O)[*:2]].[gGlu].[gGlu].[gGlu].[Sar].[Sar].[Sar].[Sar].[Sar].[Sar].[Sar].[Sar].[Sar].[O=C(CN1CCN(CCN[*:1])CC1)[*:2]].Y.F.[meL].[Nle].[Dab].[meA].R.G.[am]}$$$$V2.0) | > 1000 | 1.4 | 10.8 |
| CCCC[C@H](NC(=O)[C@H](CC(C)C)N(C)C(=O)[C@H](Cc1ccccc1)NC(=O)[C@H](Cc1ccc(O)cc1)NC(=O)CN1CCN(CCNC(=O)CN(C)C(=O)CN(C)C(=O)CN(C)C(=O)CN(C)C(=O)CN(C)C(=O)CN(C)C(=O)CN(C)C(=O)CN(C)C(=O)CN(C)C(=O)CN(C)C(=O)CN(C)C(=O)CN(C)C(=O)CC[C@H](NC(=O)CC[C@H](NC(=O)CC[C@H](NC(=O)CCCCCCCCCCCCCCCCC(=O)O)C(=O)O)C(=O)O)C(=O)O)CC1)C(=O)N[C@@H](CCN)C(=O)N(C)[C@@H](C)C(=O)N[C@@H](CCCNC(=N)N)C(=O)NCC(N)=O [Compound 38, C18DA-gGlu3-Sar12-AEPipAc-Tyr-Phe-NMeLeu-Nle-Dbu-NMeAla-Arg-Gly-NH2] | > 1000 | 1.9 | 9.7 |
| CCCC[C@H](NC(=O)[C@H](CC(C)C)N(C)C(=O)[C@H](Cc1ccccc1)NC(=O)[C@H](Cc1ccc(O)cc1)NC(=O)CN1CCN(CCNC(=O)CN(C)C(=O)CN(C)C(=O)CN(C)C(=O)CN(C)C(=O)CN(C)C(=O)CN(C)C(=O)CN(C)C(=O)CN(C)C(=O)CN(C)C(=O)CC[C@H](NC(=O)CC[C@H](NC(=O)CC[C@H](NC(=O)CCCCCCCCCCCCCCCCCCC(=O)O)C(=O)O)C(=O)O)C(=O)O)CC1)C(=O)N[C@@H](CCCNC(=N)N)C(=O)N1CCC[C@H]1C(=O)N[C@@H](CCCNC(=N)N)C(=O)NCC(N)=O [Compound 65, C20DA-gGlu3-Sar9-AEPipAc-Tyr-Phe-NMeLeu-Nle-Arg-Pro-Arg-Gly-NH2] (HELM PEPTIDE1{[O=C(O)CCCCCCCCCCCCCCCCCCC(=O)[*:2]].[gGlu].[gGlu].[gGlu].[Sar].[Sar].[Sar].[Sar].[Sar].[Sar].[Sar].[Sar].[Sar].[O=C(CN1CCN(CCN[*:1])CC1)[*:2]].Y.F.[meL].[Nle].R.P.R.G.[am]}$$$$V2.0) | 130 | 2.8 | 11.7 |
